Assay results published in US20080171779A1, “USE OF 5-HT6 ANTAGONISTS TO PREVENT RELAPSE INTO ADDICTION” (Solvay Pharmaceuticals B.V., priority 2007, published 2008).

How the values were obtained:
[1] = system: relapse behavior induced by conditioned drug cues (cocaine, heroin, nicotine, alcohol); settings: cues previously associated with cocaine, nicotine and alcohol delivery; cited from earlier work
[2] = system: cue-induced relapse of alcohol seeking in the rat; assay: Stimulus (cue) induced reinstatement of extinguished self-administration of alcohol; assay type: in vivo; settings: for Nose-pokes after an alcohol induced cue, former alcoholics / Nose-pokes after an alcohol induced cue, total abstainers: 45 min test, mean ± spread; for amount of active nose-pokes versus placebo, cue induced alcohol seeking: one-way ANOVA, Fisher's LSD; for inactive nose-pokes versus placebo, cue induced alcohol seeking: all tested dosages
Experimental: After learning to consume alcohol 12% (v/v) in a two-bottle paradigm, rats were trained to self-administer alcohol in the operant cage. When response-rates were stable, animals were withdrawn from alcohol for three weeks. Subsequently, the effect of 5-HT6 antagonists on relapse was tested by re-exposing the animals to alcohol-related stimuli.
(§1) Animals: 64 male Wistar rats, weighing 280-300 g at arrival (Harlan, the Netherlands) were used for testing compound 33. The animals were housed individually in a temperature—(T=22±2° C.) and humidity (rel %=60±5%) controlled room on a reversed 12 h light-dark cycle (lights off at 7:00 AM) with water available ad libitum. The animals were on a diet of 18 gr chow per animal per day. The experiment started after one week of acclimatization and lasted 12-14 weeks.
Drug Self-administration: All training and testing was conducted in 16 operant chambers (30.5×24.1×29.2 cm) surrounded by sound attenuating ventilated cubicles (Med Associates, Georgia, Vt.). The chambers were fitted with a grid floor, a red dim house light and opposite the house light an intelligence panel. In the intelligence panel there were two nose-poke holes (Ø2.5 cm) located 5.5 cm above the grid floor and 16 cm separated from each other. A red dim stimulus light was located 12 cm above both nose-poke holes. Between the two nose-poke holes, a receptacle was located, in which the alcohol was delivered. High above the receptacle was a sonalert tone module. […] The alcohol drop was delivered by an infusion pump (PHM-100, MedAssociates, Georgia, Vt.) in 4.2 seconds During alcohol delivery, the active nose-poke hole was illuminated and a tone (±65 dB) was presented by the sonalert tone module for 2 seconds. The receptacle was illuminated for 5 seconds (discrete cues). The stimulus light switched off for 15 seconds (discriminative cue). In this 15 second time-out period, nose-poking was without consequences.
Animals were selected for further testing if they consumed alcohol doses (in the FR4-schedule) above the literature described pharmacological effective dose of 0.3 g/kg/hr (Linseman, 1987). Subsequently, when response behavior on the FR4-schedule was stable, there was a 3 week period of withdrawal in the homecage.
Test for reinstatement: After the withdrawal period, each animal was tested twice for cue induced reinstatement with a week of further extinction training and wash-out in between. Animals were randomly distributed over the different experimental groups and never received the same treatment twice. On test days, the animals were placed in the operant cage for three or four hours (test day 1: 4 hr; test day 2: 3 hr) in absence of alcohol and alcohol related stimuli (discrete and discriminative cues) to extinguish response behavior. One hour before the end of this extinction session, the animal was removed from the operant cage and treated with a 5-HT6 antagonist. After drug administration the animals was placed back into the operant chamber, where the session continued. When the last hour had passed, the cue-induced relapse test session started (duration: 45 min). During this test, the experimental conditions were similar to the conditions during training on an FR4-schedule, with the exceptions that 1) at the beginning of the session, a 12% alcohol drop of 0.20 ml was available (delivered in the receptacle by the experimenter at the begin of the test session) and 2) after every 4th response, only cues were presented (no alcohol was delivered). Tests were operated and raw data was saved by the MED-PC IV program (Tatham, 1989).
Drugs: Alcohol 12% (v/v) was made from alcohol 96% and diluted with tap water. Compound 33 was suspended in 5% Tween 80, 0.25% methylcellulose, 5% PEG 400 and H2O HPLC (65% of end volume). Ethanol was added and evaporated under N2-gas. The pH was adjusted to 5.8. In the range: 0, 3,10, and 30 mg/kg, compound 33 was administered intraperitoneally, 15 minutes before testing. The injection volume was 2 ml/kg. […]

[3] = system: cue-induced relapse of nicotine seeking in the rat; assay: Stimulus (cue) induced reinstatement of extinguished self-administration of nicotine; assay type: in vivo; settings: for Nose-pokes after a nicotine induced cue, total abstainers / Nose-pokes after a nicotine induced cue, former nicotine addicts: 30 min test, mean ± spread; for Nose-pokes after a nicotine induced cue, former nicotine addicts: column 'former nicotine addicts'
From the text: Using a very similar test protocol, 5-HT6 antagonists were also found to suppress cue-induced nicotine-seeking behavior. Thus 5-HT6 antagonists are believed useful for the preparation of medicaments for preventing relapse into addiction, in particular relapse into addiction to substances of abuse, including opiates, hallucinogens, inhalants, phencyclidine, amphetamines, cocaine, cannabis, nicotine, and alcohol, medicaments for preventing relapse to addiction to certain medicines, including sedatives, hypnotics and anxiolytics, and medicaments for preventing relapse to certain addictive behaviors, including gambling.
as §1, with “32” for “64”, “water and food” for “water”, “libitum.” for “libitum. The animals were on a diet of 18 gr chow per animal per day.”
Surgery: after a week of acclimatization, intravenous silicon catheters are implanted in the right jugular vein under isoflurane anesthesia as described previously in De Vries, 1999.
Drug Self-administration: All training and testing was conducted in 16 operant chambers (30.5×24.1×29.2 cm) surrounded by sound attenuating ventilated cubicles (Med Associates, Georgia, Vt.). The chambers were fitted with a grid floor, a red dim house light and opposite the house light an intelligence panel. In the intelligence panel there were two nose-poke holes (Ø2.5 cm) located 5.5 cm above the grid floor and 16 cm separated from each other. A red dim stimulus light was located 12 cm above both nose-poke holes. A tone module was located at the top of the center of the intelligence panel. During self-administration, animals were connected to an infusion pump (PHM-100, Med Associates, Georgia, V.T.) by a swivel to receive intravenous infusions of nicotine (40 μg/kg/inf). […] During this infusion, the active nose poke hole was illuminated (yellow light) and an audio stimulus was presented (tone of 2900 Hz and 65 dB for 2 seconds) (discrete cues). From the moment of nicotine delivery, the stimulus light switched off for 15 seconds (discriminative cue). In this time-out period, nose poking was without consequences.
Acquisition, withdrawal and reinstatement: Behavioral training started 5-7 days after surgery. […] When response behavior was stable, animals were selected for further testing if they earned at least 5 rewards during the last three sessions of the FR3 schedule and the reward delivery was equal distributed over the session. Subsequently, responding for nicotine was extinguished. In this extinction phase (11 daily sessions of 60 min), the animals were placed in the operant chambers, but the nicotine and nicotine related stimuli (discrete and discriminative cues) were not available. Finally, the animals were tested for cue-induced reinstatement. During this test (duration of 30 minutes), the experimental conditions were similar to the conditions during training on an FR3-schedule, with the exception that no nicotine was available and the animals were not connected to the swivel.
Tests for cue-induced reinstatement were conducted twice; between these two test days, there was a week of further extinction training (wash-out period). During cue-induced reinstatement, effects of 5-HT6 antagonists were studied on output measurements.
Drugs: Nicotine for self-administration: (−) nicotine hydrogen tartrate salt (Sigma, St Louis, Mo.) was dissolved in sterile saline. The pH of the solution was adjusted to +/−7.4 with diluted NaOH. Nicotine dose was expressed as free base weight. Compound 33 was suspended in 5% of end volume Tween 80. Ethanol was added and evaporated under N2-gas for 30 minutes. […] After the pH was adjusted to 5.5, 10% of end volume H2O HPLC was added. […]

[4] = system: cue-induced relapse of alcohol seeking in the rat; assay: Stimulus (cue) induced reinstatement of extinguished self-administration of alcohol; assay type: in vivo; settings: 20 mg/kg

## Cc1c(C(=O)NN2CCCCC2)nn(-c2ccc(Cl)cc2Cl)c1-c1ccc(Cl)cc1 [SR141716A]
[1]
  relapse behavior induced by conditioned drug cues: able to selectively reduce relapse behavior

## CCN/C(=N\S(=O)(=O)c1cccc(Cl)c1)N1CC(C)(C)C=N1 [compound 33]
[2]; 3 mg/kg
  Nose-pokes after an alcohol induced cue, former alcoholics: 27.0 ± 6.1
  Nose-pokes after an alcohol induced cue, total abstainers: 1.1 ± 0.2
[2]; 10 mg/kg
  Nose-pokes after an alcohol induced cue, former alcoholics: 23.5 ± 4.2
  Nose-pokes after an alcohol induced cue, total abstainers: 2.2 ± 1.5
[2]; 30 mg/kg
  relapse into addiction (alcohol): prevented from relapse into addiction
  Nose-pokes after an alcohol induced cue, total abstainers: 0.8 ± 0.1
[2]; 30 mg/kg, p<0.005
  amount of active nose-pokes versus placebo, cue induced alcohol seeking: significantly lower
[2]
  inactive nose-pokes versus placebo, cue induced alcohol seeking: no significant difference
[3]; 3 mg/kg intraperitoneally
  Nose-pokes after a nicotine induced cue, total abstainers: 4.58 ± 1.17
  Nose-pokes after a nicotine induced cue, former nicotine addicts: 24.83 ± 3.20
[3]; 10 mg/kg intraperitoneally
  Nose-pokes after a nicotine induced cue, total abstainers: 3.00 ± 1.04
  Nose-pokes after a nicotine induced cue, former nicotine addicts: 28.50 ± 7.40
[3]; 30 mg/kg
  relapse into addiction (nicotine): prevented from relapse into addiction
[3]; 30 mg/kg intraperitoneally
  Nose-pokes after a nicotine induced cue, total abstainers: 1.75 ± 0.74
[3]; 30 mg/kg, one-way ANOVA, Fisher's LSD, p<0.05
  amount of active nose-pokes versus placebo, cue induced nicotine seeking: significantly lower
[3]; all tested dosages
  inactive nose-pokes versus placebo, cue induced nicotine seeking: no significant difference

## COc1ccc(NS(=O)(=O)c2sc3ccc(Cl)cc3c2C)cc1N1CCNCC1.Cl [SB-271046, reference compound]
[2]; 3 mg/kg
  Nose-pokes after an alcohol induced cue, former alcoholics: 11.9 ± 5.4
  Nose-pokes after an alcohol induced cue, total abstainers: 1.1 ± 0.5
[2]; 10 mg/kg
  Nose-pokes after an alcohol induced cue, total abstainers: 0.9 ± 0.5
[2]; 10 mg/kg, p<0.05
  amount of active nose-pokes versus placebo, cue induced alcohol seeking: significantly lower
[2]
  inactive nose-pokes versus placebo, cue induced alcohol seeking: no significant difference
[4]
  relapse into addiction (alcohol): prevented from relapse into addiction
[4]; 'total abstainers', 45 min test, mean ± spread
  Nose-pokes after an alcohol induced cue, total abstainers: 2.7 ± 1.9
[4]; one-way ANOVA, Fisher's LSD, p<0.005
  amount of active nose-pokes versus placebo, cue induced alcohol seeking: significantly lower
